Measured values from US20130029962A1, “Substituted Heteroaromatic Pyrazole-Containing Carboxamide and Urea Compounds as Vanilloid Receptor Ligands” (Gruenenthal GmbH, priority 2011, published 2013).

What follows are molecules tested against T1, vanilloid receptor 1 (VR1/TRPV1 receptor) (Homo sapiens, UniProt Q8NER1) (assay: Functional testing on the vanilloid receptor 1 (VR1/TRPV1): FLIPR Ca2+ influx assay, displacement of capsaicin). Settings: 5 μM compound; capsaicin (Cap); human being; read-out: inhibition (as a percentage) at the concentration after @, Cap.
T1 construct: expressed in transfected cells; host or cells: CHO K1
T1 sequence (Q8NER1 whole entry): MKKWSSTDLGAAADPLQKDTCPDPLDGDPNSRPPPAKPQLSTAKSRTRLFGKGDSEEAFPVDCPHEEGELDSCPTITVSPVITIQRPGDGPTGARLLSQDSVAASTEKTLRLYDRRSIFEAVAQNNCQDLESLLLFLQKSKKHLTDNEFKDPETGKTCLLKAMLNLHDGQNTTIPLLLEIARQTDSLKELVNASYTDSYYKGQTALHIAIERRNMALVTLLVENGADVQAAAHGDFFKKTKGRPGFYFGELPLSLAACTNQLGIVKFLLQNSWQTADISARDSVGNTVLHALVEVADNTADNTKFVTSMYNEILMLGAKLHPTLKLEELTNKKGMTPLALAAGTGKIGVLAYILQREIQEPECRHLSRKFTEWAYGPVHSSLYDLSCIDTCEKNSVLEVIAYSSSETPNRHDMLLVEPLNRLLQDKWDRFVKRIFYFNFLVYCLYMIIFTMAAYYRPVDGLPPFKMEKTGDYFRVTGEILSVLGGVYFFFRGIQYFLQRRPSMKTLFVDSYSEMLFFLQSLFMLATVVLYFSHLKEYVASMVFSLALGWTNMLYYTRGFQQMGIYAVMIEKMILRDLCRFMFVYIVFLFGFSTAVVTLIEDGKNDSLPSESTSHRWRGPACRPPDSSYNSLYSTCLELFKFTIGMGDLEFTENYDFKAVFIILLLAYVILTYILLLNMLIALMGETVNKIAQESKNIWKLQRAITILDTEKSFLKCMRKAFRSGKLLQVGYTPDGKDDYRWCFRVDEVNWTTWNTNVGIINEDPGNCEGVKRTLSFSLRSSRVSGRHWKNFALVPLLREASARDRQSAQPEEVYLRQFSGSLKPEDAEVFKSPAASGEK
Format: cell-based, human being
Set-up: key to mode of action at VR1/TRPV1 (AG, pAG, NE), Cap: AG=agonist; NE=no effect; pAG=partial agonist
Protocol: Furthermore, preference may be given to compounds according to the invention that cause a 50 percent displacement of capsaicin, which is present at a concentration of 100 nM, in a FLIPR assay with CHO K1 cells which were transfected with the human VR1 gene at a concentration of less than 2,000 nM, preferably less than 1,000 nM, particularly preferably less than 300 nM, most particularly preferably less than 100 nM, even more preferably less than 75 nM, additionally preferably less than 50 nM, most preferably less than 10 nM.
In the process, the Ca^2+ influx is quantified in the FLIPR assay with the aid of a Ca^2+-sensitive dye (type Fluo-4, Molecular Probes Europe BV, Leiden, the Netherlands) in a fluorescent imaging plate reader (FLIPR, Molecular Devices, Sunnyvale, USA), as described hereinafter. […]
The number of cells in the suspension is set to 3×10^5 per mL and 150 μL of this suspension are in each case introduced into a recess in the cell culture plates coated as described hereinbefore. In the incubator the plates are left for two to three days at 37° C., 5% by volume of CO2 and 95% relative humidity. Subsequently, the cells are loaded with 2 μM of Fluo-4 and 0.01% by volume of Pluronic F127 (Molecular Probes Europe BV, Leiden, the Netherlands) in HBSS buffer (Hank's buffered saline solution, Gibco Invitrogen GmbH, Karlsruhe, Germany) for 30 min at 37° C., washed 3 times with HBSS buffer and after further incubation for 15 minutes at room temperature used for Ca^2+ measurement in a FLIPR assay. The Ca^2+-dependent fluorescence is in this case measured before and after the addition of substances (λex=488 nm, λem=540 nm). Quantification is carried out by measuring the highest fluorescence intensity (FC, fluorescence counts) over time.
The FLIPR protocol consists of 2 substance additions. First the compounds to be tested (10 μM) are pipetted onto the cells and the Ca^2+ influx is compared with the control (capsaicin 10 μM). This provides the result in % activation based on the Ca^2+ signal after the addition of 10 μM of capsaicin (CP). After 5 minutes' incubation, 100 nM of capsaicin are applied and the Ca^2+ influx is also determined. Desensitising agonists and antagonists lead to suppression of the Ca^2+ influx. The % inhibition is calculated compared to the maximum achievable inhibition with 10 μM of capsazepine. Triple analyses (n=3) are carried out and repeated in at least 3 independent experiments (N=4).
Starting from the percentage displacement caused by different concentrations of the compounds to be tested of general formula I, IC50 inhibitory concentrations which cause a 50-percent displacement of capsaicin were calculated. Ki values for the test substances were obtained by conversion by means of the Cheng-Prusoff equation (Cheng, Prusoff; Biochem. Pharmacol. 22, 3099-3108, 1973).
The affinity of the compounds according to the invention for the vanilloid receptor 1 (VR1/TRPV1 receptor) was determined as described above (pharmacological method I).
Molecule `CC(C(=O)NCc1cc(C(F)(F)F)nn1-c1cccc(Cl)c1)c1ccccn1` (stereo not drawn) [Example 3, N-((1-(3-chlorophenyl)-3-(trifluoromethyl)-1H-pyrazol-5-yl)methyl)-2-(pyridin-2-yl)propanamide] has an inhibition at 5 µM of 35%.
Work on `COCCN(C)c1ccc(C(C)C(=O)NCc2cc(C(F)(F)F)nn2-c2cccc(Cl)c2)cn1` (stereo not drawn) [Example 88, N-((1-(3-chlorophenyl)-3-(trifluoromethyl)-1H-pyrazol-5-yl)methyl)-2-(6-((2-methoxyethyl)(methyl)amino)pyridin-3-yl)propanamide] yielded an inhibition at 5 µM of 55%.
With `COc1ccc(-n2nc(C(F)(F)F)cc2CNC(=O)Nc2ccc(CO)nc2)cc1C` [Example 37, 1-(6-(hydroxymethyl)pyridin-3-yl)-3-((1-(4-methoxy-3-methylphenyl)-3-(trifluoromethyl)-1H-pyrazol-5-yl)methyl)urea] the inhibition at 5 µM was 41%.
With `COCCNc1ccc(NC(=O)NCc2cc(C(C)(C)C)nn2-c2cccc(Cl)c2)cn1` [Example 68, 1-((3-tert-butyl-1-(3-chlorophenyl)-1H-pyrazol-5-yl)methyl)-3-(6-(2-methoxyethylamino)pyridin-3-yl)urea] the inhibition at 5 µM was 73%.
`NC(=O)c1ccc(NC(=O)NCc2cc(C(F)(F)F)nn2-c2cccc(Cl)c2)cn1` [Example 26, 5-(3-((1-(3-chlorophenyl)-3-(trifluoromethyl)-1H-pyrazol-5-yl)methyl)ureido)picolinamide] was tested, and the inhibition at 5 µM was 44%.
`COCCOc1ccc(NC(=O)NCc2cc(C(F)(F)F)nn2-c2cccc(Cl)c2)cn1` [Example 132, 1-((1-(3-chlorophenyl)-3-(trifluoromethyl)-1H-pyrazol-5-yl)methyl)-3-(6-(2-methoxyethoxy)pyridin-3-yl)urea] was tested, and the inhibition at 5 µM was 45%.

Same assay, conditions: capsaicin (Cap) as stimulus; Ki from IC50 by Cheng-Prusoff; read-out: (f) Ki (human being) [nM] Cap
Work on `CS(=O)(=O)CCc1ncc(NC(=O)NCc2cc(C3CC3)nn2-c2cccc(Cl)c2)cc1F` [Example 24, 1-((1-(3-chlorophenyl)-3-cyclopropyl-1H-pyrazol-5-yl)methyl)-3-(5-fluoro-6-(2-(methylsulfonyl)ethyl)pyridin-3-yl)urea] yielded a Ki of 46 nM.
`CN(C)c1ncc(NC(=O)NCc2cc(C(F)(F)F)nn2-c2cccc(Cl)c2)cc1C(F)(F)F` [Example 106, 1-((1-(3-chlorophenyl)-3-(trifluoromethyl)-1H-pyrazol-5-yl)methyl)-3-(6-(dimethylamino)-5-(trifluoromethyl)pyridin-3-yl)urea] gave a Ki of 25 nM.
For `CC(C(=O)NCc1cc(C(C)(C)C)nn1-c1cccc(Cl)c1)c1ccc(NC(=O)c2ccc(Cl)cc2)nc1` (stereo not drawn) [Example 95, N-(5-(1-((3-tert-butyl-1-(3-chlorophenyl)-1H-pyrazol-5-yl)methylamino)-1-oxopropan-2-yl)pyridin-2-yl)-4-chlorobenzamide], the Ki was 2 nM.
In the case of `CC(C(=O)NCc1cc(C(C)(C)C)nn1-c1cccc(Cl)c1)c1ccc(C(=O)Nc2ccc(C(F)(F)F)cc2)nc1` (stereo not drawn) [Example 61, 5-(1-((3-tert-butyl-1-(3-chlorophenyl)-1H-pyrazol-5-yl)methylamino)-1-oxopropan-2-yl)-N-(4-(trifluoromethyl)phenyl)picolinamide], the Ki was 45 nM.
Molecule `COc1cc(NC(=O)NCc2cc(C(F)(F)F)nn2-c2cccc(Cl)c2)cnc1N1CCCC1` [Example 123, 1-((1-(3-chlorophenyl)-3-(trifluoromethyl)-1H-pyrazol-5-yl)methyl)-3-(5-methoxy-6-(pyrrolidin-1-yl)pyridin-3-yl)urea] has a Ki of 83 nM.
`Cc1cc(-n2nc(C(F)(F)F)cc2CNC(=O)Nc2ccc(NCCO)nc2)ccc1F` [Example 158, 1-((1-(4-fluoro-3-methylphenyl)-3-(trifluoromethyl)-1H-pyrazol-5-yl)methyl)-3-(6-(2-hydroxyethylamino)pyridin-3-yl)urea] gave a Ki of 77 nM.
With `CC(C(=O)NCc1cc(C(F)(F)F)nn1-c1cccc(Cl)c1)c1ccc(CNS(C)(=O)=O)nc1` (stereo not drawn) [Example 27, N-((1-(3-chlorophenyl)-3-(trifluoromethyl)-1H-pyrazol-5-yl)methyl)-2-(6-(methylsulfonamidomethyl)pyridin-3-yl)propanamide] the Ki was 61 nM.
`CC(C(=O)NCc1cc(C(F)(F)F)nn1-c1cccc(Cl)c1)c1cnc(C(=O)Nc2ccc(F)cc2)nc1` (stereo not drawn) [Example 63, 5-(1-((1-(3-chlorophenyl)-3-(trifluoromethyl)-1H-pyrazol-5-yl)methylamino)-1-oxopropan-2-yl)-N-(4-fluorophenyl)pyrimidine-2-carboxamide] showed a Ki of 6 nM.
`O=C(NCc1cc(C(F)(F)F)nn1-c1cccc(Cl)c1)Nc1ccc(OCCO)nc1` [Example 133, 1-((1-(3-chlorophenyl)-3-(trifluoromethyl)-1H-pyrazol-5-yl)methyl)-3-(6-(2-hydroxyethoxy)pyridin-3-yl)urea] gave a Ki of 88 nM.
`CC(C(=O)NCc1cc(C(F)(F)F)nn1-c1cccc(Cl)c1)c1cccnc1` (stereo not drawn) [Example 8, N-((1-(3-chlorophenyl)-3-(trifluoromethyl)-1H-pyrazol-5-yl)methyl)-2-(pyridin-3-yl)propanamide] was tested, and the Ki was 13 nM.
Molecule `CC(C)(C)c1cc(CNC(=O)Nc2ccc(N3CC[C@@H](O)C3)nc2)n(-c2cccc(Cl)c2)n1` [Example 126, (R)-1-((3-tert-butyl-1-(3-chlorophenyl)-1H-pyrazol-5-yl)methyl)-3-(6-(3-hydroxypyrrolidin-1-yl)pyridin-3-yl)urea] has a Ki of 61 nM.
`CC(C)(C)c1cc(CNC(=O)Nc2ccc(NCCO)nc2)n(-c2cccc(F)c2)n1` [Example 154, 1-((3-tert-butyl-1-(3-fluorophenyl)-1H-pyrazol-5-yl)methyl)-3-(6-(2-hydroxyethylamino)pyridin-3-yl)urea] showed a Ki of 38 nM.
Work on `CC(C(=O)NCc1cc(C(C)(C)C)nn1-c1cccc(Cl)c1)c1cnc(NS(C)(=O)=O)c(F)c1` (stereo not drawn) [Example 102, N-((3-tert-butyl-1-(3-chlorophenyl)-1H-pyrazol-5-yl)methyl)-2-(5-fluoro-6-(methylsulfonamido)pyridin-3-yl)propanamide] yielded a Ki of 8 nM.
With `CC(C)(C)c1cc(CNC(=O)Nc2ccc(C(O)CO)nc2)n(-c2cccc(Cl)c2)n1` (stereo not drawn) [Example 144, 1-((3-tert-butyl-1-(3-chlorophenyl)-1H-pyrazol-5-yl)methyl)-3-(6-(1,2-dihydroxyethyl)pyridin-3-yl)urea] the Ki was 24 nM.
With `O=C(NCc1cc(C(F)(F)F)nn1-c1ccc(F)c(F)c1)Nc1ccc(NCCO)nc1` [Example 79, 1-((1-(3,4-difluorophenyl)-3-(trifluoromethyl)-1H-pyrazol-5-yl)methyl)-3-(6-(2-hydroxyethylamino)pyridin-3-yl)urea] the Ki was 26 nM.
Molecule `COc1ccc(-n2nc(C(F)(F)F)cc2CNC(=O)Nc2ccc(NCCO)nc2)cc1C` [Example 157, 1-(6-(2-hydroxyethylamino)pyridin-3-yl)-3-((1-(4-methoxy-3-methylphenyl)-3-(trifluoromethyl)-1H-pyrazol-5-yl)methyl)urea] has a Ki of 112 nM.
In the case of `COc1cccc(-n2nc(C(C)(C)C)cc2CNC(=O)Nc2ccc(CCO)nc2)c1` [Example 153, 1-((3-tert-butyl-1-(3-methoxyphenyl)-1H-pyrazol-5-yl)methyl)-3-(6-(2-hydroxyethyl)pyridin-3-yl)urea], the Ki was 50 nM.
In the case of `CC(C(=O)NCc1cc(C(C)(C)C)nn1-c1cccc(Cl)c1)c1ccc(C(=O)Nc2ccc(F)cc2)nc1` (stereo not drawn) [Example 60, 5-(1-((3-tert-butyl-1-(3-chlorophenyl)-1H-pyrazol-5-yl)methylamino)-1-oxopropan-2-yl)-N-(4-fluorophenyl)picolinamide], the Ki was 4 nM.
Work on `CC(C(=O)NCc1cc(C(F)(F)F)nn1-c1cccc(Cl)c1)c1ccc(COCCO)nc1` (stereo not drawn) [Example 53, N-((1-(3-chlorophenyl)-3-(trifluoromethyl)-1H-pyrazol-5-yl)methyl)-2-(6-((2-hydroxyethoxy)methyl)pyridin-3-yl)propanamide] yielded a Ki of 44 nM.

Same assay, conditions: capsaicin (Cap); human being
For `O=C(NCc1cc(C(F)(F)F)nn1-c1cccc(Cl)c1)Nc1ccc(CNCCO)nc1` [Example 134, 1-((1-(3-chlorophenyl)-3-(trifluoromethyl)-1H-pyrazol-5-yl)methyl)-3-(6-((2-hydroxyethylamino)methyl)pyridin-3-yl)urea], the “mode of action at VR1/TRPV1 (AG, pAG, NE), Cap” value was “NE”.
`COCCNc1ccc(NC(=O)NCc2cc(C(C)(C)C)nn2-c2cccc(Cl)c2)cn1` [Example 68, 1-((3-tert-butyl-1-(3-chlorophenyl)-1H-pyrazol-5-yl)methyl)-3-(6-(2-methoxyethylamino)pyridin-3-yl)urea] was tested, and the “mode of action at VR1/TRPV1 (AG, pAG, NE), Cap” value was “AG”.
